Tests used:
Type in all cases: cell-based, Human
[1] = test system: multiple myeloma cell line MM.1S; test: microRNA and mRNA array, treated MM.1S cells; details: 37° C., 6 hours
Description: The Human miRNome Complete RT^2 miRNA PCR Array profiles the expression of the 752 most abundantly expressed and best characterized microRNA (miRNA) sequences in the Human miRNA genome (miRNome), as annotated by the Sanger miRBase Release 14. The Illumina Gene Expression Beadchip content provides genome-wide transcriptional coverage of well-characterized genes, gene candidates, and splice variants. Each array on the BeadChip targets more than 47,000 probes derived from the National Center for Biotechnology Information Reference Sequence (NCBI) RefSeq Release 38 (Nov. 7, 2009) and other sources. Compound D was incubated with a multiple myeloma cell line (MM.1S or RPMI8226) or a stromal cell line (HS-5) at 37° C. for 6 hours. The concentration of Compound D was 2 uM. Alternatively, Compound A was incubated with the multiple myeloma cell line MM.1S at 37° C. for 6 hours. Total RNA was extracted from the treated cells (e.g., MM.1S cells and RPMI8226 cells) and analyzed using microRNA array. […] The numbers shown are normalized to the expression level of the corresponding biomarker in control cells. For example, the expression level of biomarker hsa-miR-346 was 0.26, which means that the expression level of this biomarker in treated MM.1S cells was 26% of the expression level of this biomarker in MM.1S control cells. Conversely, the expression level of biomarker hsa-miR-145 was 3.09, which means that the expression level of this biomarker in treated MM.1S cells was 3.09 fold of the expression level of this biomarker in MM.1S control cells.

[2] = test system: multiple myeloma cell line RPMI8226; test: microRNA and mRNA array, treated RPMI8226 cells; details: RPMI-8226 cells, Compound D 2 uM, 37° C., 6 hours
Description: (§1) The Human miRNome Complete RT^2 miRNA PCR Array profiles the expression of the 752 most abundantly expressed and best characterized microRNA (miRNA) sequences in the Human miRNA genome (miRNome), as annotated by the Sanger miRBase Release 14.
(§2) The Illumina Gene Expression Beadchip content provides genome-wide transcriptional coverage of well-characterized genes, gene candidates, and splice variants. Each array on the BeadChip targets more than 47,000 probes derived from the National Center for Biotechnology Information Reference Sequence (NCBI) RefSeq Release 38 (Nov. 7, 2009) and other sources.
(§3) Compound D was incubated with a multiple myeloma cell line (MM.1S or RPMI8226) or a stromal cell line (HS-5) at 37° C. for 6 hours. The concentration of Compound D was 2 uM.
(§4) Total RNA was extracted from the treated cells (e.g., MM.1S cells and RPMI8226 cells) and analyzed using microRNA array.
(§5) The numbers shown are normalized to the expression level of the corresponding biomarker in control cells. For example, the expression level of biomarker hsa-miR-346 was 0.26, which means that the expression level of this biomarker in treated MM.1S cells was 26% of the expression level of this biomarker in MM.1S control cells. Conversely, the expression level of biomarker hsa-miR-145 was 3.09, which means that the expression level of this biomarker in treated MM.1S cells was 3.09 fold of the expression level of this biomarker in MM.1S control cells.

stromal cell line HS-5 = test: microRNA and mRNA array, treated stromal HS-5 cells; details: Compound D 2 uM, 37° C., 6 hours
Description: as §1, §2, §3, §4, §5

[3] = Compound A (concentration not given)

O=C(CCCCCCNC(=O)c1cnc(N(c2ccccc2)c2ccccc2)nc1)NO [Compound A, 2-(diphenylamino)-N-(7-(hydroxyamino)-7-oxoheptyl) pyrimidine-5-carboxamide]
expression of small non-coding RNA SEQ ID NO: 26 normalized to control cells [1, 3]: 0.74 | expression of small non-coding RNA SEQ ID NO: 27 normalized to control cells [1, 3]: 0.74

O=C(NO)c1cnc(NC2(c3ccccc3)CC2)nc1 [Compound D, N-hydroxy-2-((1-phenylcyclopropyl)amino)pyrimidine-5-carboxamide]
expression of miRNA SEQ ID NO: 1 (hsa-miR-346) normalized to control cells ([1]; Compound D 2 uM): 0.26 | expression of miRNA SEQ ID NO: 2 normalized to control cells ([1]; Compound D 2 uM): 0.33 | expression of miRNA SEQ ID NO: 3 normalized to control cells ([1]; Compound D 2 uM): 0.23 | expression of miRNA SEQ ID NO: 4 normalized to control cells ([1]; Compound D 2 uM): 0.27 | expression of miRNA SEQ ID NO: 5 normalized to control cells ([1]; Compound D 2 uM): 0.31 | expression of miRNA SEQ ID NO: 12 (hsa-miR-145) normalized to control cells ([1]; Compound D 2 uM): 3.09 | expression of miRNA SEQ ID NO: 13 normalized to control cells ([1]; Compound D 2 uM): 3.53 | expression of miRNA SEQ ID NO: 14 normalized to control cells ([1]; Compound D 2 uM): 3.19 | expression of miRNA SEQ ID NO: 15 normalized to control cells ([1]; Compound D 2 uM): 3.29 | expression of miRNA SEQ ID NO: 16 normalized to control cells ([1]; Compound D 2 uM): 4.68 | expression of small non-coding RNA SEQ ID NO: 26 normalized to control cells ([1]; Compound D 2 uM): 0.46 | expression of small non-coding RNA SEQ ID NO: 27 normalized to control cells ([1]; Compound D 2 uM): 0.45 | expression of miRNA SEQ ID NO: 2 normalized to control cells [2]: 0.09 | expression of miRNA SEQ ID NO: 6 normalized to control cells [2]: 0.28 | expression of miRNA SEQ ID NO: 7 normalized to control cells [2]: 0.25 | expression of miRNA SEQ ID NO: 8 normalized to control cells [2]: 0.33 | expression of miRNA SEQ ID NO: 9 normalized to control cells [2]: 0.24 | expression of miRNA SEQ ID NO: 17 normalized to control cells [2]: 3.22 | expression of miRNA SEQ ID NO: 18 normalized to control cells [2]: 3.31 | HIF-1a expression level in treated cells as % of the expression level in control cells (stromal cell line HS-5): 49% | PTPRU expression level in treated cells, fold of the expression level in control cells (stromal cell line HS-5): 2.52 fold | expression of mRNA SEQ ID NO: 24 (HIF-1a) normalized to control cells (stromal cell line HS-5): 0.49 | expression of mRNA SEQ ID NO: 25 (PTPRU) normalized to control cells (stromal cell line HS-5): 2.52 | expression of miRNA SEQ ID NO: 10 normalized to control cells (stromal cell line HS-5): 0.26 | expression of miRNA SEQ ID NO: 11 normalized to control cells (stromal cell line HS-5): 0.15 | expression of miRNA SEQ ID NO: 19 normalized to control cells (stromal cell line HS-5): 6.64 | expression of miRNA SEQ ID NO: 20 normalized to control cells (stromal cell line HS-5): 21.71 | expression of miRNA SEQ ID NO: 21 normalized to control cells (stromal cell line HS-5): 54.35 | expression of miRNA SEQ ID NO: 22 normalized to control cells (stromal cell line HS-5): 5.95 | expression of miRNA SEQ ID NO: 23 normalized to control cells (stromal cell line HS-5): 3.52
